Values of other authors in article PMC11359394 (Pharmaceutics, 2024).

Assays:
[1] = system: CYP2C8 and CYP3A4 isoenzymes
[2] = design: method as in US FDA GRAS Notices; details: rats, dietary consumption; ref US FDA GRAS Notices

Row | SMILES | solubility increase by exploiting the polymorphs [fold] | fraction metabolized in the liver by CYP P450 [1] | dietary dose with no adverse effects [2]
1 | CC(=O)O[C@H]1C(=O)[C@@]2(C)[C@H]([C@H](OC(=O)c3ccccc3)[C@]3(O)C[C@H](OC(=O)[C@H](O)[C@@H](NC(=O)c4ccccc4)c4ccccc4)C(C)=C1C3(C)C)[C@]1(OC(C)=O)CO[C@@H]1C[C@@H]2O [Paclitaxel] | 60 | Approximately 90% | 
2 | C=C1C[C@@]23CC[C@H]4[C@@](C)(CCC[C@@]4(C)C(=O)O[C@@H]4O[C@H](CO)[C@@H](O)[C@H](O)[C@H]4O)[C@@H]2CC[C@]1(O[C@@H]1O[C@H](CO)[C@@H](O)[C@H](O)[C@H]1O)C3 [RUB, Rubusoside] |  |  | up to 2 g/kg
